Experimental data published in US20190358181A1, “METHODS FOR AUTISM SPECTRUM DISORDER PHARMACOTHERAPY” (priority 2017, published 2019).

System: 610 metabolites from 63 biochemical pathways
Assay: Targeted broad-spectrum plasma metabolomic analysis (LC-MS/MS), paired pre-infusion vs post-infusion (2-days and 6-weeks)
Format: in vivo, human
Details: for Linear Ratio / VIP Score / Z Abs / Z Score: plasma
Description: Targeted, broad-spectrum, plasma metabolomic analysis of 610 metabolites from 63 biochemical pathways was performed by high performance liquid chromatography and tandem mass spectrometry (LC-MS/MS) on the samples collected from patients in Example 1. Venous blood was collected between the hours of 8 am and 5 pm, at least 3 hours after the last meal, into lithium-heparin vacutainer tubes (BD #367884). Plasma was separated by centrifugation at 900 g×10 minutes at room temperature within one hour of collection. The resulting fresh lithium-heparin plasma was transferred to labeled 1.2 ml or 2.0 ml externally threaded cryotubes with a minimum headspace air gap for storage at −80° C. for analysis. Samples were analyzed on an AB SCIEX QTRAP 5500 triple quadrupole mass spectrometer equipped with a Turbo V electrospray ionization (ESI) source, Shimadzu LC-20A UHPLC system, and a PAL CTC autosampler. Typically, 90 μl of plasma was thawed on ice and transferred to a 1.7 ml Eppendorf tube. Five (5.0) μl of a cocktail containing 25-35 commercial stable isotope internal standards, and 5.0 μl of 57 stable isotope internal standards that were custom-synthesized in E. coli NCM3722, Caenorhabditis elegans N2, and Komagataella phaffii (ATCC 76273; formerly known as Pichia pastoris) by metabolic labeling with 13C-glucose and 13C-bicarbonate, were added, mixed, and incubated for 10 min at 20° C. to permit small molecules and vitamins in the internal standards to associate with plasma binding proteins. Macromolecules (protein, DNA, RNA, glycans, etc.) were precipitated by extraction with 4 volumes (400 μl) of cold (−20° C.), acetonitrile:methanol (50:50) (LCMS grade, Cat #LC015-2.5 and GC230-4, Burdick & Jackson, Honeywell), vortexed vigorously, and incubated on crushed ice for 10 min, then removed by centrifugation at 16,000 g×10 min at 4° C. The supernatants containing the extracted metabolites and internal standards in the resulting 40:40:20 solvent mix of acetonitrile:methanol:water were transferred to labeled cryotubes and stored at −80° C. for LCMS/MS analysis.
LC-MS/MS analysis was performed by scheduled multiple reaction monitoring (sMRM) under Analyst v1.6.2 software control in both negative and positive mode with rapid polarity switching (50 ms). Nitrogen was used for curtain gas (set to 30), collision gas (set to high), ion source gas 1 and 2 (set to 35). The source temperature was 500° C. Spray voltage was set to −4500 V in negative mode and 5500 V in positive mode. The values for Q1 and Q3 mass-to-charge ratios (m/z), declustering potential (DP), entrance potential (EP), collision energy (CE), and collision cell exit potential (CXP) were determined and optimized for each MRM for each metabolite. Ten microliters of extract was injected by PAL CTC autosampler via a 10 μl stainless steel loop into a 250 mm×2.0 mm, 4 μm polymer based NH2 HPLC column (Asahipak NH2P-40 2E, Showa Denko America, Inc., NY) held at 25° C. for chromatographic separation. The mobile phase was solvent A: 95% water with 20 mM (NH4)2CO3 (Sigma, Fluka Cat #74415-250G-F), 5% acetonitrile, and 38 mM NH4OH (Sigma, Fluka Cat #17837-100ML), final pH 9.75; solvent B: 100% acetonitrile. Separation was achieved using the following gradient: 0-3.5 min: 95% B, 3.6-8 min: 85% B, 8.1-13 min: 75% B, 13.5-35 min: 0% B, 36-46 min: 95% B, 46.1 min: end. The flow rate was 200 μl/min. Pump pressures ranged from 920-2600 psi over the course of the gradient. All the samples were kept at 4° C. during analysis. The chromatographic peaks were identified using MultiQuant (v3.0, Sciex), confirmed by manual inspection, and the peak areas integrated. […]

[1] = Nitric Oxide, Superoxide, Peroxide Metabolism, 6-weeks
[2] = Nitric Oxide, Superoxide, Peroxide, 2-days
[3] = Phospholipid Metabolism, 2-days
[4] = Phospholipid Metabolism, 6-weeks

Cc1ccc(C(=O)Nc2ccc(S(=O)(=O)O)c3cc(S(=O)(=O)O)cc(S(=O)(=O)O)c23)cc1NC(=O)c1cccc(NC(=O)Nc2cccc(C(=O)Nc3cc(C(=O)Nc4ccc(S(=O)(=O)O)c5cc(S(=O)(=O)O)cc(S(=O)(=O)O)c45)ccc3C)c2)c1 [Suramin, suramin]
Fold Enrichment (Obs/Exp) (Krebs Cycle, 2-days): 1.6
Fraction of Impact (VIP Score) Explained (% of 119.7) (Krebs Cycle, 2-days): 3%
Impact (Sum VIP Score) (Krebs Cycle, 2-days): 3.3
Increased (Krebs Cycle, 2-days): 2
Observed Hits in the Top 61 Metabolites (Krebs Cycle, 2-days): 2
Decreased (Krebs Cycle, 6-weeks): 0
Fold Enrichment (Obs/Exp) (Krebs Cycle, 6-weeks): 2.0
Fraction of Impact (VIP Score) Explained (% of 94.6) (Krebs Cycle, 6-weeks): 5%
Impact (Sum VIP Score) (Krebs Cycle, 6-weeks): 4.3
Increased (Krebs Cycle, 6-weeks): 2
Observed Hits in the Top 48 Metabolites (Krebs Cycle, 6-weeks): 2
Linear Ratio (L-Asparagine, 6-weeks): 1.360
VIP Score (L-Asparagine, 6-weeks): 1.824
Z Abs (L-Asparagine, 6-weeks): 1.581
Z Score (L-Asparagine, 6-weeks): 1.581
Linear Ratio (L-Cystine, 6-weeks): 1.190
VIP Score (L-Cystine, 6-weeks): 1.774
Z Abs (L-Cystine, 6-weeks): 1.060
Z Score (L-Cystine, 6-weeks): 1.060
Linear Ratio (L-Kynurenine, 6-weeks): 1.303
VIP Score (L-Kynurenine, 6-weeks): 2.096
Z Abs (L-Kynurenine, 6-weeks): 1.751
Z Score (L-Kynurenine, 6-weeks): 1.751
Linear Ratio (L-Phenylalanine, 6-weeks): 1.245
VIP Score (L-Phenylalanine, 6-weeks): 1.875
Z Abs (L-Phenylalanine, 6-weeks): 1.381
Z Score (L-Phenylalanine, 6-weeks): 1.381
Linear Ratio (L-Proline, 6-weeks): 1.196
VIP Score (L-Proline, 6-weeks): 1.546
Z Abs (L-Proline, 6-weeks): 0.749
Z Score (L-Proline, 6-weeks): 0.749
Linear Ratio (L-Serine, 6-weeks): 1.152
VIP Score (L-Serine, 6-weeks): 1.505
Z Abs (L-Serine, 6-weeks): 0.954
Z Score (L-Serine, 6-weeks): 0.954
Linear Ratio (Lathosterol, 6-weeks): 1.284
VIP Score (Lathosterol, 6-weeks): 1.844
Z Abs (Lathosterol, 6-weeks): 1.079
Z Score (Lathosterol, 6-weeks): 1.079
Linear Ratio (Methionine sulfoxide, 6-weeks): 1.409
VIP Score (Methionine sulfoxide, 6-weeks): 2.104
Z Abs (Methionine sulfoxide, 6-weeks): 2.083
Z Score (Methionine sulfoxide, 6-weeks): 2.083
Linear Ratio (Mevalonic acid, 6-weeks): 1.386
VIP Score (Mevalonic acid, 6-weeks): 1.673
Z Abs (Mevalonic acid, 6-weeks): 1.036
Z Score (Mevalonic acid, 6-weeks): 1.036
Decreased (Microbiome Metabolism, 2-days): 0
Fold Enrichment (Obs/Exp) (Microbiome Metabolism, 2-days): 1.6
Fraction of Impact (VIP Score) Explained (% of 119.7) (Microbiome Metabolism, 2-days): 8%
Impact (Sum VIP Score) (Microbiome Metabolism, 2-days): 9.3
Increased (Microbiome Metabolism, 2-days): 4
Observed Hits in the Top 61 Metabolites (Microbiome Metabolism, 2-days): 4
Decreased (Microbiome Metabolism, 6-weeks): 0
Fold Enrichment (Obs/Exp) (Microbiome Metabolism, 6-weeks): 2.0
Fraction of Impact (VIP Score) Explained (% of 94.6) (Microbiome Metabolism, 6-weeks): 9%
Impact (Sum VIP Score) (Microbiome Metabolism, 6-weeks): 8.4
Increased (Microbiome Metabolism, 6-weeks): 4
Observed Hits in the Top 48 Metabolites (Microbiome Metabolism, 6-weeks): 4
Decreased [1]: 0
Fold Enrichment (Obs/Exp) [1]: 4.5
Fraction of Impact (VIP Score) Explained (% of 94.6) [1]: 2%
Impact (Sum VIP Score) [1]: 2.2
Increased [1]: 1
Observed Hits in the Top 48 Metabolites [1]: 1
Decreased [2]: 1
Fold Enrichment (Obs/Exp) [2]: 3.5
Fraction of Impact (VIP Score) Explained (% of 119.7) [2]: 2%
Impact (Sum VIP Score) [2]: 1.9
Increased [2]: 0
Observed Hits in the Top 61 Metabolites [2]: 1
Linear Ratio (Octanoylcarnitine, 6-weeks): 0.703
VIP Score (Octanoylcarnitine, 6-weeks): 1.780
Z Abs (Octanoylcarnitine, 6-weeks): 1.451
Z Score (Octanoylcarnitine, 6-weeks): −1.451
Linear Ratio (PE (18:0/18:0), 6-weeks): 0.644
VIP Score (PE (18:0/18:0), 6-weeks): 1.555
Z Abs (PE (18:0/18:0), 6-weeks): 1.331
Z Score (PE (18:0/18:0), 6-weeks): −1.331
Decreased [3]: 3
Fold Enrichment (Obs/Exp) [3]: 0.3
Fraction of Impact (VIP Score) Explained (% of 119.7) [3]: 5%
Impact (Sum VIP Score) [3]: 5.7
Increased [3]: 0
Observed Hits in the Top 61 Metabolites [3]: 3
Decreased [4]: 1
Fold Enrichment (Obs/Exp) [4]: 0.1
Fraction of Impact (VIP Score) Explained (% of 94.6) [4]: 2%
Impact (Sum VIP Score) [4]: 1.6
Increased [4]: 0
Observed Hits in the Top 48 Metabolites [4]: 1
Decreased (Purine Metabolism, 2-days): 5
Fold Enrichment (Obs/Exp) (Purine Metabolism, 2-days): 2.4
